Measurements published in article PMC11520566, “Discovery of pyrazole-based analogs as CDK2 inhibitors with apoptotic-inducing activity: design, synthesis and molecular dynamics study” (RSC Advances, 2024).
pIC50: −log10 of the molar value. Where two headings read alike, the source gives them in different places.

Experiments:
HT29 = assay: NCI 60 five dose assay, Colon cancer; assay type: cell-based, human
NCI 60 cell panel = assay: NCI 60 five dose assay, subpanel and full panel means; assay type: cell-based, human
K-562 = assay: NCI 60 five dose assay, Leukemia; assay type: cell-based, human
COLO 205 = assay: NCI 60 five dose assay, Colon cancer; assay type: cell-based, human
in vitro = conditions: human
SW-620 = assay: NCI 60 five dose assay, Colon cancer; assay type: cell-based, human
UACC-62 = assay: NCI 60 five dose assay, Melanoma; assay type: cell-based, human
MDA-MB-231/ATCC = assay: NCI 60 five dose assay, Breast cancer; assay type: cell-based, human
TK-10 = assay: NCI 60 five dose assay, Renal cancer; assay type: cell-based, human
HCT-116 = assay: NCI 60 five dose assay, Colon cancer; assay type: cell-based, human
OVCAR-5 = assay: NCI 60 five dose assay, Ovarian cancer; assay type: cell-based, human
KM12 = assay: NCI 60 five dose assay, Colon cancer; assay type: cell-based, human
DU-145 = assay: NCI 60 five dose assay, Prostate cancer; assay type: cell-based, human
HOP-62 = assay: NCI 60 five dose assay, Non-small cell lung cancer; assay type: cell-based, human
NCI-H322M = assay: NCI 60 five dose assay, Non-small cell lung cancer; assay type: cell-based, human
BT-549 = assay: NCI 60 five dose assay, Breast cancer; assay type: cell-based, human
SR = assay: NCI 60 five dose assay, Leukemia; assay type: cell-based, human
[1] = Homo sapiens, read-out: LC50 (the source's name)

Compound: CC(=NNc1ccc(S(N)(=O)=O)cc1)c1ccc(NN=C2C(=O)NN=C2Nc2ccccc2)cc1 [Compound 4, 4-(2-(1-(4-(2-(5-oxo-3-(phenylamino)-1,5-dihydro-4H-pyrazol-4-ylidene)hydrazinyl)phenyl)ethylidene)hydrazinyl)benzene sulfonamide]
- GI50 (HT29; Homo sapiens, HT-29): 3.58 µM
- CC50 (HT29; Homo sapiens, HT-29, read-out: LC50 (the source's name)): 34 µM
- Percent Growth (HT29; Log10 Concentration -4.0 Molar): -100%
- Percent Growth (HT29; Log10 Concentration -5.0 Molar): 7%
- Percent Growth (HT29; Log10 Concentration -6.0 Molar): 104%
- Percent Growth (HT29; Log10 Concentration -7.0 Molar): 117%
- Percent Growth (HT29; Log10 Concentration -8.0 Molar): 100%
- GI50 (NCI 60 cell panel; Colon cancer subpanel, read-out: MG-MID for GI50): 3.33 µM
- GI50 (NCI 60 cell panel; Homo sapiens, 60 cell, Breast cancer subpanel, read-out: MG-MID for GI50): 2.36 µM
- GI50 (NCI 60 cell panel; Homo sapiens, 60 cell, CNS cancer subpanel, read-out: MG-MID for GI50): 2.39 µM
- GI50 (NCI 60 cell panel; Homo sapiens, 60 cell, Colon cancer subpanel, read-out: MG-MID for GI50): 3.33 µM
- GI50 (NCI 60 cell panel; Homo sapiens, 60 cell, Leukemia subpanel, read-out: MG-MID for GI50): 2.42 µM
- GI50 (NCI 60 cell panel; Homo sapiens, 60 cell, Melanoma subpanel, read-out: MG-MID for GI50): 2.47 µM
- GI50 (NCI 60 cell panel; Homo sapiens, 60 cell, Non-small cell lung cancer subpanel, read-out: MG-MID for GI50): 4.79 µM
- GI50 (NCI 60 cell panel; Homo sapiens, 60 cell, Ovarian cancer subpanel, read-out: MG-MID for GI50): 4.19 µM
- GI50 (NCI 60 cell panel; Homo sapiens, 60 cell, Prostate cancer subpanel, read-out: MG-MID for GI50): 3.13 µM
- GI50 (NCI 60 cell panel; Homo sapiens, 60 cell, Renal cancer subpanel, read-out: MG-MID for GI50): 9.18 µM
- GI50 (NCI 60 cell panel; Homo sapiens, 60 cell, against almost the whole panel of cancer cell lines, read-out: GI50 range): 1.1 to 5.9 µM
- GI50 (NCI 60 cell panel; Homo sapiens, 60 cell, average over all cell lines, read-out: Full panel MG-MID (GI50)): 3.81 µM
- GI50 (NCI 60 cell panel; Homo sapiens, 60 cell, range over the nine subpanels, read-out: subpanel GI50 (MG-MID) range): 2.36 to 9.17 µM
- GI50 (NCI 60 cell panel; Melanoma subpanel, read-out: MG-MID for GI50): 2.48 µM
- GI50 (NCI 60 cell panel; Prostate cancer subpanel, read-out: MG-MID for GI50): 3.14 µM
- Selectivity index (NCI 60 cell panel; full panel MG-MID / Breast cancer subpanel MG-MID): 1.614
- Selectivity index (NCI 60 cell panel; full panel MG-MID / CNS cancer subpanel MG-MID): 1.595
- Selectivity index (NCI 60 cell panel; full panel MG-MID / Colon cancer subpanel MG-MID): 1.143
- Selectivity index (NCI 60 cell panel; full panel MG-MID / Leukemia subpanel MG-MID): 1.574
- Selectivity index (NCI 60 cell panel; full panel MG-MID / Melanoma subpanel MG-MID): 1.539
- Selectivity index (NCI 60 cell panel; full panel MG-MID / Non-small cell lung cancer subpanel MG-MID): 0.795
- Selectivity index (NCI 60 cell panel; full panel MG-MID / Ovarian cancer subpanel MG-MID): 0.909
- Selectivity index (NCI 60 cell panel; full panel MG-MID / Prostate cancer subpanel MG-MID): 1.215
- Selectivity index (NCI 60 cell panel; full panel MG-MID / Renal cancer subpanel MG-MID): 0.415
- GI50 (K-562; Homo sapiens, K562): 2.29 µM
- CC50 (K-562; Homo sapiens, K562, read-out: LC50 (the source's name)): 22.8 µM
- Percent Growth (K-562; Log10 Concentration -4.0 Molar): -100%
- Percent Growth (K-562; Log10 Concentration -5.0 Molar): -22%
- Percent Growth (K-562; Log10 Concentration -6.0 Molar): 90%
- Percent Growth (K-562; Log10 Concentration -7.0 Molar): 87%
- Percent Growth (K-562; Log10 Concentration -8.0 Molar): 88%
- GI50 (COLO 205; Homo sapiens): 3.28 µM
- CC50 (COLO 205; [1]): 34.6 µM
- Percent Growth (COLO 205; Log10 Concentration -4.0 Molar): -100%
- Percent Growth (COLO 205; Log10 Concentration -5.0 Molar): 9%
- Percent Growth (COLO 205; Log10 Concentration -6.0 Molar): 94%
- Percent Growth (COLO 205; Log10 Concentration -7.0 Molar): 105%
- Percent Growth (COLO 205; Log10 Concentration -8.0 Molar): 101%
- pIC50 (in vitro): 4.39
- GI50 (SW-620; Homo sapiens): 3.18 µM
- CC50 (SW-620; [1]): 58.8 µM
- Percent Growth (SW-620; Log10 Concentration -4.0 Molar): -67%
- Percent Growth (SW-620; Log10 Concentration -5.0 Molar): 7%
- Percent Growth (SW-620; Log10 Concentration -6.0 Molar): 93%
- Percent Growth (SW-620; Log10 Concentration -7.0 Molar): 102%
- Percent Growth (SW-620; Log10 Concentration -8.0 Molar): 102%
- GI50 (UACC-62; Homo sapiens): 1.96 µM
- CC50 (UACC-62; [1]): 9.6 µM
- Percent Growth (UACC-62; Log10 Concentration -4.0 Molar): -93%
- Percent Growth (UACC-62; Log10 Concentration -5.0 Molar): -53%
- Percent Growth (UACC-62; Log10 Concentration -6.0 Molar): 92%
- Percent Growth (UACC-62; Log10 Concentration -7.0 Molar): 93%
- Percent Growth (UACC-62; Log10 Concentration -8.0 Molar): 89%
- GI50 (MDA-MB-231/ATCC; Homo sapiens): 2 µM
- CC50 (MDA-MB-231/ATCC; [1]): 8.28 µM
- Percent Growth (MDA-MB-231/ATCC; Log10 Concentration -4.0 Molar): -100%
- Percent Growth (MDA-MB-231/ATCC; Log10 Concentration -5.0 Molar): -63%
- Percent Growth (MDA-MB-231/ATCC; Log10 Concentration -6.0 Molar): 99%
- Percent Growth (MDA-MB-231/ATCC; Log10 Concentration -7.0 Molar): 99%
- Percent Growth (MDA-MB-231/ATCC; Log10 Concentration -8.0 Molar): 95%
- GI50 (TK-10; Homo sapiens): 18.6 µM
- CC50 (TK-10; [1]): > 100 µM
- Percent Growth (TK-10; Log10 Concentration -4.0 Molar): -25%
- Percent Growth (TK-10; Log10 Concentration -5.0 Molar): 78%
- Percent Growth (TK-10; Log10 Concentration -6.0 Molar): 101%
- Percent Growth (TK-10; Log10 Concentration -7.0 Molar): 102%
- Percent Growth (TK-10; Log10 Concentration -8.0 Molar): 97%
- GI50 (HCT-116; Homo sapiens): 3.04 µM
- CC50 (HCT-116; [1]): 32 µM
- Percent Growth (HCT-116; Log10 Concentration -4.0 Molar): -100%
- Percent Growth (HCT-116; Log10 Concentration -5.0 Molar): 1%
- Percent Growth (HCT-116; Log10 Concentration -6.0 Molar): 96%
- Percent Growth (HCT-116; Log10 Concentration -7.0 Molar): 104%
- Percent Growth (HCT-116; Log10 Concentration -8.0 Molar): 98%
- GI50 (OVCAR-5; Homo sapiens): 11 µM
- CC50 (OVCAR-5; [1]): 54.2 µM
- Percent Growth (OVCAR-5; Log10 Concentration -4.0 Molar): -88%
- Percent Growth (OVCAR-5; Log10 Concentration -5.0 Molar): 56%
- Percent Growth (OVCAR-5; Log10 Concentration -6.0 Molar): 93%
- Percent Growth (OVCAR-5; Log10 Concentration -7.0 Molar): 96%
- Percent Growth (OVCAR-5; Log10 Concentration -8.0 Molar): 95%
- GI50 (KM12; Homo sapiens): 2.66 µM
- CC50 (KM12; [1]): 29.9 µM
- Percent Growth (KM12; Log10 Concentration -4.0 Molar): -100%
- Percent Growth (KM12; Log10 Concentration -5.0 Molar): -5%
- Percent Growth (KM12; Log10 Concentration -6.0 Molar): 90%
- Percent Growth (KM12; Log10 Concentration -7.0 Molar): 101%
- Percent Growth (KM12; Log10 Concentration -8.0 Molar): 98%
- GI50 (DU-145; Homo sapiens): 3.21 µM
- CC50 (DU-145; [1]): 32.2 µM
- Percent Growth (DU-145; Log10 Concentration -4.0 Molar): -100%
- Percent Growth (DU-145; Log10 Concentration -5.0 Molar): 2%
- Percent Growth (DU-145; Log10 Concentration -6.0 Molar): 99%
- Percent Growth (DU-145; Log10 Concentration -7.0 Molar): 106%
- Percent Growth (DU-145; Log10 Concentration -8.0 Molar): 100%
- GI50 (HOP-62; Homo sapiens): 2.05 µM
- CC50 (HOP-62; [1]): 30.3 µM
- Percent Growth (HOP-62; Log10 Concentration -4.0 Molar): -78%
- Percent Growth (HOP-62; Log10 Concentration -5.0 Molar): -24%
- Percent Growth (HOP-62; Log10 Concentration -6.0 Molar): 84%
- Percent Growth (HOP-62; Log10 Concentration -7.0 Molar): 95%
- Percent Growth (HOP-62; Log10 Concentration -8.0 Molar): 91%
- GI50 (NCI-H322M; Homo sapiens): 3.72 µM
- CC50 (NCI-H322M; [1]): 41.9 µM
- Percent Growth (NCI-H322M; Log10 Concentration -4.0 Molar): -93%
- Percent Growth (NCI-H322M; Log10 Concentration -5.0 Molar): 21%
- Percent Growth (NCI-H322M; Log10 Concentration -6.0 Molar): 89%
- Percent Growth (NCI-H322M; Log10 Concentration -7.0 Molar): 99%
- Percent Growth (NCI-H322M; Log10 Concentration -8.0 Molar): 103%
- GI50 (BT-549; Homo sapiens): 2.83 µM
- CC50 (BT-549; [1]): 31.1 µM
- Percent Growth (BT-549; Log10 Concentration -4.0 Molar): -100%
- Percent Growth (BT-549; Log10 Concentration -5.0 Molar): -1%
- Percent Growth (BT-549; Log10 Concentration -6.0 Molar): 92%
- Percent Growth (BT-549; Log10 Concentration -7.0 Molar): 105%
- Percent Growth (BT-549; Log10 Concentration -8.0 Molar): 94%
- GI50 (SR; Homo sapiens): 1.74 µM
- CC50 (SR; [1]): 23.6 µM
- Percent Growth (SR; Log10 Concentration -4.0 Molar): -87%
- Percent Growth (SR; Log10 Concentration -5.0 Molar): -28%
- Percent Growth (SR; Log10 Concentration -6.0 Molar): 75%
- Percent Growth (SR; Log10 Concentration -7.0 Molar): 93%
- Percent Growth (SR; Log10 Concentration -8.0 Molar): 85%
